US7507749B2, “Antitumor agents” (priority 2001, dated 2009)
Where two headings read alike, the source gives them in different places.

Legend:
[1] = test system: mammary adenocarcinoma-16/C; test: Test F: R-enantiomers of 22b and 22c against early staged mammary adenocarcinoma-16/C; type: in vivo, C3H female mice
Protocol: C3H female mice were obtained from N.C.I. (D.O.B. was […]; D.O.A. was Jan. 27, 2001). The mice weighed an average of 19.2 gm. Mice were implanted SC with mammary adenocarcinoma-16/C passage-170, a fast growing, highly invasive, highly metastatic tumor (D.O.T. was Mar. 8, 2001; Td was 1.2 days).
The R-enantiomers of both Compound 22c and Compound 22b were each suspended in 3% ethanol, 1% POE-80, 0.5% sodium bicarbonate (by volume) to effect solution, P.B.S. was then added and the pH adjusted to 7 with HCl. Adriamycin (ADRIA; lot number 20338c) was suspended in dH2O to effect solution and the pH was adjusted to 6.0. Mice were administered 0.2 ml per IV injection.

[2] = test system: pancreatic ductal adenocarcinoma-03; type: in vivo
Protocol: BDF1 female mice were obtained from N.C.I., CRL-Ral (D.O.B. was Feb. 26, 2001; D.O.A. was Mar. 10, 2001). The mice weighed an average of 22.5 gm. Mice were implanted SC with pancreatic ductal adenocarcinoma-03 passage 143. (D.O.T. was May 29, 2001; Td was 2.3 days).
The R-enantiomer of compound 22c was suspended in 3% ethanol, 1% POE-80, 0.25% sodium bicarbonate (by volume) to effect solution. dH2O was then added, and the pH adjusted to 7 with HCl. […] The R-enantiomer of compound 22b was suspended in 3% ethanol, 1% POE-80, 0.5% sodium-bicarbonate (by volume) to effect solution. Then, dH2O was added, and the pH adjusted to 7.5 with HCl. […] Adriamycin (source ADRIA; lot 2033BC) was suspended in dH2O to effect solution, and the pH was 6.0.
Treatment began six days following implant, at which time the tumors were palpable size (126 mg median). The duration of treatment was prolonged (18 days) in order to obtain a clear separation in efficacy between the compounds.

colon carcinoma 26 = conditions: Cg 3; IV 50 mg/kg/inj days 6,8,10,13,15; total 250 mg/kg
Protocol: In this trial the R-enantiomers of XK-469, compound 22c, and compound 22b were compared against advanced staged colon carcinoma 26 in female Balb/c mice. […] Cage #2 was 22b at 400 mg/kg and Cage #4 was 22c at 400 mg/kg.
The XK469-R, 22b, and 22c compound doses were all prepared the same, using 3% ethanol, 1% POE-80, and 0.5% sodium bicarbonate. The injection volume was 0.2 mu/mouse IV. […] The mice were Balb/c female mice: DOB Feb. 12, 2001; DOA Mar. 27, 2001; DOT Sep. 8, 2001, with an average body weight of 24.7 grams at the start of Rx administration. The tumor was Colon Carcinoma-26 passage 141; date of implant Sep. 8, 2001, and implanted at 30 to 60 mg fragments bilaterally SC. All tumors were 63 to 171 mg on day 6, the day of first Rx.

[3] = Cage 5, IV 50 mg/kg/inj qd 1-5, total 250 mg/kg
[4] = Cage 5, IV 50 mg/kg/inj qd 1-5, total 250 mg/kg, listed as R-enantiomer of compound 22b
[5] = Cage 6, IV 50 mg/kg/inj days 1,3,5,7, total 200 mg/kg
[6] = Cage 7, IV 30 mg/kg/inj days 1,3,5,7, total 120 mg/kg
[7] = Cg 2, IV 80 mg/kg/inj days 6,9,12,15,18,21,24, total 560 mg/kg
[8] = Cg 3, IV 50 mg/kg/inj days 6,9,12,15,18,21,24, total 350 mg/kg
[9] = Cg 4, IV 31 mg/kg/inj days 6,9,12,15,18,21,24, total 217 mg/kg
[10] = Cg 5, total 592.8 mg/kg, text: SC 31.2 mg/kg/inj qd 6-24 (table prints days 6,9..24 IV)
[11] = Cg 12 in table (Cage 6 in text), total 370.5 mg/kg, text: SC 19.5 mg/kg/inj qd 6-24 (table prints IV)

SMILES: C[C@@H](Oc1ccc(Oc2ccc3ccc(Cl)cc3n2)cc1)C(=O)O [Compound R-22b, (R) 2-[4-(7-chloroquinolin-2-yloxy)phenoxy]propanoic acid]
- % T/C mass [1, 3]: 0%
- Activity Rating [1, 3]: +++ (2.0-2.8)
- Drug Deaths [1, 3]: 0/5
- Growth Delay [1, 3]: 7.0 days
- Log Kill [1, 3]: 2.1
- Median Tumor Mass on Day 10 (Range) [1, 3]: 0 mg
- Median time for tumors to 1000 mg (range) [1, 3]: 16.5 (13.5-18) days
- Tumor Free day-155 [1, 3]: 0/5
- % T/C mass [1, 4]: 0%
- Drug Deaths [1, 4]: no deaths
- % T/C mass [1, 5]: 5%
- Activity Rating [1, 5]: ++ (1.3-1.9)
- Drug Deaths [1, 5]: 0/5
- Growth Delay [1, 5]: 5.8 days
- Log Kill [1, 5]: 1.7
- Median Tumor Mass on Day 10 (Range) [1, 5]: 75 mg
- Median time for tumors to 1000 mg (range) [1, 5]: 15.3 (14-17) days
- Tumor Free day-155 [1, 5]: 0/5
- % T/C mass ([1]; Cage 6, IV 50 mg/kg/inj days 1,3,5,7, total 200 mg/kg, listed as R-enantiomer of compound 22b): 5%
- % T/C mass [1, 6]: 32%
- Activity Rating [1, 6]: + (0.7-1.2)
- Drug Deaths [1, 6]: 0/5
- Growth Delay [1, 6]: 2.5 days
- Log Kill [1, 6]: 0.8
- Median Tumor Mass on Day 10 (Range) [1, 6]: 486 mg
- Median time for tumors to 1000 mg (range) [1, 6]: 12 (11.5-14) days
- Tumor Free day-155 [1, 6]: 0/5
- % T/C mass ([1]; Cage 7, IV 30 mg/kg/inj days 1,3,5,7, total 120 mg/kg, listed as R-enantiomer of compound 22b): 32%
- Neuromuscular toxicity ([1]; mouse, in vivo, iv): completely devoid of neuromuscular toxicity
- Behavior post injection ([2]; Cage 2, IV 80 mg/kg/inj, lasted only a few minutes): agitated post IV injection
- Neuromuscular toxicity ([2]; Cage 2, IV 80 mg/kg/inj, total 560 mg/kg): no neuromuscular toxicity
- Behavior post injection ([2]; Cage 5, SC 31.2 mg/kg/inj qd 6-24): not agitated post SC injection
- Behavior post injection ([2]; Cage 6 in text, SC 19.5 mg/kg/inj qd 6-24): not agitated post SC injection
- % Body Wt change between day 6 and day 24 [2, 7]: +3.7%
- % T/C mass [2, 7]: 14.1%
- Activity Rating [2, 7]: +++ (2.0-2.8)
- CR's [2, 7]: 0/7
- Drug Deaths [2, 7]: 0/7
- Growth Delay [2, 7]: 17.5 days
- Log Kill [2, 7]: 2.3
- Median Tumor Mass on Day 24 (Range) [2, 7]: 320 mg
- Median time for tumors to 1,000 mg (range) [2, 7]: 34 days
- PR's [2, 7]: 2/7
- Tumor Free day-157 [2, 7]: 0/7
- % Body Wt change between day 6 and day 24 [2, 8]: +8.8%
- % T/C mass [2, 8]: 29.1%
- Activity Rating [2, 8]: ++ (1.3-1.9)
- CR's [2, 8]: 1/6
- Drug Deaths [2, 8]: 0/6
- Growth Delay [2, 8]: 11.5 days
- Log Kill [2, 8]: 1.5
- Median Tumor Mass on Day 24 (Range) [2, 8]: 658 mg
- Median time for tumors to 1,000 mg (range) [2, 8]: 28 days
- PR's [2, 8]: 1/6
- Tumor Free day-157 [2, 8]: 0/6
- % Body Wt change between day 6 and day 24 [2, 9]: +10.4%
- % T/C mass [2, 9]: 76.2%
- Activity Rating [2, 9]: − (<0.7)
- CR's [2, 9]: 0/6
- Drug Deaths [2, 9]: 0/6
- Growth Delay [2, 9]: 3.5 days
- Log Kill [2, 9]: 0.5
- Median Tumor Mass on Day 24 (Range) [2, 9]: 1722 mg
- Median time for tumors to 1,000 mg (range) [2, 9]: 20 days
- PR's [2, 9]: 0/6
- Tumor Free day-157 [2, 9]: 0/6
- % Body Wt change between day 6 and day 24 [2, 10]: +3.5%
- % T/C mass [2, 10]: 48.9%
- Activity Rating [2, 10]: + (0.7-1.2)
- CR's [2, 10]: 1/5
- Drug Deaths [2, 10]: 0/5
- Growth Delay [2, 10]: 6.5 days
- Log Kill [2, 10]: 0.9
- Median Tumor Mass on Day 24 (Range) [2, 10]: 1105 mg
- Median time for tumors to 1,000 mg (range) [2, 10]: 23 days
- PR's [2, 10]: 1/5
- Tumor Free day-157 [2, 10]: 1/5
- % Body Wt change between day 6 and day 24 [2, 11]: +10.3%
- % T/C mass [2, 11]: 82.7%
- Activity Rating [2, 11]: − (<0.7)
- CR's [2, 11]: 0/5
- Drug Deaths [2, 11]: 0/5
- Growth Delay [2, 11]: 3.0 days
- Log Kill [2, 11]: 0.4
- Median Tumor Mass on Day 24 (Range) [2, 11]: 1868 mg
- Median time for tumors to 1,000 mg (range) [2, 11]: 19.5 days
- PR's [2, 11]: 0/5
- Tumor Free day-157 [2, 11]: 0/5
- % Body Wt change at nadir (colon carcinoma 26): −6.2%
- Activity Rating (colon carcinoma 26): ++ (1.3-1.9)
- CR's (colon carcinoma 26): 1/6
- Drug Deaths (colon carcinoma 26): 0/6
- Growth Delay (colon carcinoma 26): 8 days
- Log Kill (colon carcinoma 26): 1.4
- Median time for tumors to 700 mg (range) (colon carcinoma 26): 21 (15.5-48) days
- PR's (colon carcinoma 26): 1/6
- Tumor Free day-156 (colon carcinoma 26): 0/6
- day of nadir (colon carcinoma 26): 16 days
